According to paper PMC3522636, “4F Decreases IRF5 Expression and Activation in Hearts of Tight Skin Mice” (PLoS ONE, 2012):
“Also recorded” adds a separate entry of the source.

How the values were obtained:
IRF5 [1] = assay: Western blot, myocardial IRF5 expression; type: in vivo, mouse; conditions: 4F 1 mg/kg/d, sc
Excerpt: (§1) All experimental procedures and protocols involving mice were reviewed and approved by the Institutional Animal Care and Use Committee (IACUC) of the Medical College of Wisconsin (AUA#512). They also conformed to the rules in the Guiding Principles in the Care and Use of Animals published by the American Physiologic Society and the Guide for the Care and Use of Laboratory Animals published by OLAW. Male Tsk^−/+ and C57Bl/6J mice (6–8 weeks of age) were purchased from Jackson Laboratories (Bar Harbor, ME). Three groups of mice were studied; C57Bl/6J, Tsk^−/+, and Tsk^−/+ mice treated with 4F (1 mg/kg/d, sc) as published previously.
Hearts harvested from C57Bl/6J, Tsk^−/+ and 4F-treated Tsk ^−/+ mice were snap-frozen and stored at −80°C for subsequent analysis. Frozen hearts were pulverized in a stainless steel mortar and pestle bathed in liquid nitrogen. The frozen powder was dissolved and homogenized in lysis buffer [MOPS pH 7.0, 20 mM; EGTA 2 mM; EDTA 5mM; NaF 30 mM; Protease Inhibitor Cocktail (Complete Mini Roche, Roche, Madison WI); Phosphatase Inhibitor Cocktail (Sigma P5726)]. Lysate proteins were quantified using BCA (bicinchoninic acid) reagent (Pierce, Rockford, IL). […] Band densities were analyzed using Image J software (NIH, Bethesda, MD).

[2] = test system: Human umbilical vein endothelial cells; assay: Cellular uptake of B-4F in endothelial cells; type: cell-based; conditions: B-4F 10 and 50 µg/ml; vs unlabeled 4F; 4 hours (method), 3 hours (Figure 6); confocal
Method: Human umbilical vein endothelial cells (EC; Lonza, Walkersville, MD) were incubated in EGM complete media containing 4F or B-4F (10 and 50 µg/ml) for 4 hours. The EC cultures were washed with PBS, fixed in PBS containing 1% paraformaldehyde, and permeabilized with PBS containing 0.5% Triton-X. The permeabilized sections were incubated with fluorescein-conjugated streptavidin (1 µg/ml) for 30 minutes followed by 3 PBS washes. The fixed and fluorescently labeled slides were mounted in aqueous mounting media and sections inspected and analyzed by confocal microscopy.

Tsk−/+ hearts = assay: TUNEL assay, apoptotic cells in heart sections; type: in vivo, mouse; conditions: 4F 1 mg/kg/d, sc; 4F-treated vs untreated Tsk−/+ hearts
Excerpt: as §1
Hearts were harvested from mice, flash frozen and imbedded in OCT and cut into 10 µm sections. A TUNEL assay was performed on the sections using an ApopTag Plus Fluorescein labeled kit (Millipore, Billerica, MA, Cat# S7111) as per the manufacturer’s instructions. Briefly, the free 3'OH DNA termini were labeled in situ with an anti-digoxigenin antibody conjugated to fluorescein. Nuclei were stained with TO-PRO 3™ for 3 minutes (1 µg/ml, Invitrogen). Slides were mounted and analyzed by confocal microscopy (Nikon Eclipse TE2000-U, EZ-C1-2 10 software, Nikon, Melville, NY). Images were captured using 488 nm excitation for fluorescein and 633 nm for nuclear labeling. Intensity was measured using Nikon Element imaging software (Nikon).

IRF5 [3] = assay: IRF5 immunoprecipitation, phosphoserine and ubiquitin on IRF5 in heart lysates; type: in vivo, mouse
Excerpt: as §1
To determine the effects of strain and 4F treatments on the activation state of IRF5 we immunoprecipitated IRF5 from heart homogenates and examined changes in phosphoserine and ubiquitination on IRF5 using previously published protocols, [15]. Briefly, heart homogenates were precleared with agarose beads for 1 hour followed by addition of anti-IRF5 antibody (Santa Cruz Biotechnologies) to the homogenates (500 µg in 0.5 ml) at 5 µg/100 µl (final concentration). Samples were incubated for 16 h at 4°C with end-over-end mixing. A 50 µl aliquot of a 50% slurry of Protein A agarose beads (Santa Cruz Biotechnologies) was added and incubated for 2 h with end-over-end mixing to pull-down immunocaptured IRF5. The beads were isolated by centrifugation and washed 3 times (3 minutes each time) in PBS. IRF5 was released from the beads with Laemmli sample buffer (Bio-Rad, Hercules, CA) containing mercaptoethanol and heating to 95°C for 5 min. IRF5 was separated from co-precipitated proteins by SDS-PAGE (4–15% Tris·HCl Criterion gels, Bio-Rad) and the proteins transferred onto nitrocellulose membranes. Membranes were blocked in 10% non-fat dry milk and then incubated in 2% non-fat dry milk containing polyclonal rabbit anti-phosphoserine (Antibodies-Online, Atlanta, GA, 1∶200 dilution), monoclonal mouse anti-ubiquitin (Santa Cruz Biotechnologies, 1∶200 dilution) or monoclonal mouse anti-K^63 ubiquitin (Enzo, Farmingdale, NY, 1∶500 dilution) overnight at 4°C. The next day, the membranes were gently washed and incubated with the HRP-conjugated donkey anti-rabbit antibody (1∶5,000, Santa Cruz Biotechnologies). Autoradiograms were developed; images of bands captured and densities analyzed as described above.

Substance: Ac-DWFKAFYDKVAEKFKEAF-NH2 [4F]
- reduction of IRF5 in Tsk−/+ hearts (band density) (IRF5 [1]; 6 weeks, vs untreated Tsk−/+ hearts): 78%
- myocardial IRF5 expression (in words) (IRF5 [1]; 6–8 weeks, Tsk−/+ hearts): decrease IRF5 in Tsk^−/+ hearts; also recorded: markedly decreased IRF5 expression in Tsk^−/+ hearts; also recorded: markedly decrease IRF5 expression in Tsk^−/+ myocardium; also recorded: decreases myocardial expression of IRF5; also recorded: decreases IRF5 levels and activation in the Tsk^−/+ mouse hearts
- uptake into EC (in words) [2]: enters EC in a concentration-dependent fashion
- TUNEL positive (apoptotic) cells (Tsk−/+ hearts): decreased both measurements in Tsk^−/+ hearts; also recorded: significantly decreased the number of TUNEL positive cells in Tsk^−/+ hearts compared to the number in untreated Tsk^−/+ hearts but not to the level of TUNEL positive cells in C57Bl/6J hearts; also recorded: increased compared with the levels in the hearts of C57BL/6J mice and hearts from 4F-treated Tsk^−/+ mice; also recorded: fewer apoptotic cells than hearts from untreated Tsk^−/+ mice
- phosphoserine levels on IRF5 (in words) (IRF5 [3]; 4F 1 mg/kg/d, sc, Tsk−/+ hearts, IRF5 immunoprecipitates): decrease phosphoserine; also recorded: reduced phosphoserine levels on IRF5 in Tsk^−/+ hearts
- decrease of phosphoserine levels on IRF5 (IRF5 [3]; 4F-treated Tsk−/+ hearts vs C57BL/6J and untreated Tsk−/+ hearts, IRF5 immunoprecipitates, Western blot): about 15%
- total ubiquitin on IRF5 (IRF5 [3]; 4F-treated Tsk−/+ hearts vs C57BL/6J hearts, * = p<0.05, n = 4, IRF5 immunoprecipitates): increase total ubiquitin on IRF5; also recorded: increased in 4F-treated Tsk^−/+ hearts compared with the levels on IRF5 in C57BL/6J hearts; also recorded: significantly increased total ubiquitin levels on IRF5 in the Tsk^−/+ hearts
- IRF5 activation (in words) (IRF5 [3]; 4F-treated Tsk−/+ hearts, inferred from phosphoserine and ubiquitin on IRF5): decrease IRF5 expression and activation in Tsk^−/+ hearts; also recorded: inactivated in 4F-treated Tsk^−/+ hearts
